From patent US6436959B1 (priority 1998, dated 2002)

Experiments:
opioid delta receptor = molecular target: T1, opioid delta receptor (Homo sapiens, UniProt P41143); assay type: binding
T1 construct: purchased Receptor Biology, Baltimore, Md; host or cells: CHO cells (recombinant, membranes)

δ-opioid receptor = molecular target: T2, δ-opioid receptor (Rattus norvegicus, UniProt P33533); conditions: read-out: Ki in binding to the δ-opioid receptor
T2 construct: the forebrains are homogenized in Tris buffer in a Teflon®-glass homogenizer; from tissue; host or cells: forebrain of male Wistar rats, particulate (membrane) preparation

[1] = tested on: acetylcholine bromide-induced abdominal constriction response; test: Mouse Acetylcholine Bromide-Induced Abdominal Constriction Assay; assay type: in vivo; conditions: p.o., 30 minutes before i.p. 5.5 mg/kg acetylcholine bromide, % inhibition of constriction response (% analgesia)
Procedure: C) Mouse Acetylcholine Bromide-Induced Abdominal Constriction Assay
The mouse acetylcholine-induced abdominal constiction assay, as described by Collier et al. in Brit. J. Pharmacol. Chem. Ther., 32: 295-310, 1968, with minor modifications was used to assess analgesic potency of the compounds of formula (I). The test drugs or appropriate vehicles were administered orally (p.o.) and 30 minutes later the animal received an intraperitoneal (i.p.) injection of 5.5 mg/kg acetylcholine bromide (Matheson, Coleman and Bell, East Rutherford, N.J.). The mice were then placed in groups of three into glass bell jars and observed for a ten minute observation period for the occurrence of an abdominal constriction response (defined as a wave of constriction and elongation passing caudally along the abdominal wall, accompanied by a twisting of the trunk and followed by extension of the hind limbs). The percent inhibition of this response to a nociceptive stimulus (equated to % analgesia) was calculated as follows: The % inhibition of response, i.e., % analgesia is equal to the difference between the No. of control animal responses and the No. of drug-treated animal responses times 100 divided by the No. of control animals responding.

μ-opioid receptor = μ-opioid receptor (Rattus norvegicus, UniProt P33535); conditions: read-out: Ki in binding to the μ-opioid receptor; rat forebrain preparation, [3H]DAMGO, 25° C.
Chain of μ-opioid receptor (P33535 whole entry): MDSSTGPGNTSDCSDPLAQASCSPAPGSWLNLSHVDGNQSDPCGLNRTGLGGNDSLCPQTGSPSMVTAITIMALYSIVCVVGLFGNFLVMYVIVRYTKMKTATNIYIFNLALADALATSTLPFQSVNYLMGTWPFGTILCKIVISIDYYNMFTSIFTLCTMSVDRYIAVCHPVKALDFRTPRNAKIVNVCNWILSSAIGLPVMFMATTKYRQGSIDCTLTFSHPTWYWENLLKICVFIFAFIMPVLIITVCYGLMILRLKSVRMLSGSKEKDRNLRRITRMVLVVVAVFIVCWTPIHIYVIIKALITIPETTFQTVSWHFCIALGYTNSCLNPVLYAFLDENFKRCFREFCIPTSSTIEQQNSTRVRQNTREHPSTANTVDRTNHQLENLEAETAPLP

T1 sequence (P41143 whole entry): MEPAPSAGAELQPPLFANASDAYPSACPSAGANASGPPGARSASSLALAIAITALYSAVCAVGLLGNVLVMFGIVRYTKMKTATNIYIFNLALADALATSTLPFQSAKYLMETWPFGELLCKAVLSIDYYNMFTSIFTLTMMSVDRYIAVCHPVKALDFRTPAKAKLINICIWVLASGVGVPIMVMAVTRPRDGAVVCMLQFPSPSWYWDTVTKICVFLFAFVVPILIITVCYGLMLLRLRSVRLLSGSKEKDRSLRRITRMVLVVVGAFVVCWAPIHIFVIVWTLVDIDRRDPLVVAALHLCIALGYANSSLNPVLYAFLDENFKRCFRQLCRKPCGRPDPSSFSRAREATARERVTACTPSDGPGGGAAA
T2 sequence (P33533 whole entry): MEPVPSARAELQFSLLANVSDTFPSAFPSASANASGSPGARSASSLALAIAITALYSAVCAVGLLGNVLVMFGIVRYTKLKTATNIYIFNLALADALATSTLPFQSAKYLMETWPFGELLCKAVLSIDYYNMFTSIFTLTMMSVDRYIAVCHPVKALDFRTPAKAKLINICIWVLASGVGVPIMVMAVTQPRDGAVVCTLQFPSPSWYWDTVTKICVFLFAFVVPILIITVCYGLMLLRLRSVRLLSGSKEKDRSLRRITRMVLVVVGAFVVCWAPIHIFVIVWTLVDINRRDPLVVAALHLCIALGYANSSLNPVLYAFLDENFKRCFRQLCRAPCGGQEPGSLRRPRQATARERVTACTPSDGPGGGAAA

## CCCN1CCC(N(c2ccccc2)c2cccc(C(=O)N(C)c3ccccc3)c2)CC1.O=C(O)/C=C/C(=O)O [C4, N-Methyl-N-phenyl-3-[phenyl(1-propylpiperidin-4-yl)amino]benzamide Fumarate[1:1.4]]
Opioid delta receptor
  % I @ 25 μM: 41%
δ-opioid receptor
  Ki: 25 nM
[1]
  ED50: 4.2 µmol/kg
μ-opioid receptor
  Ki: 153 nM
